Measured values from US20220090083A1, “TARGETING EGLN1 IN CANCER” (THE BROAD INSTITUTE, INC., priority 2018, published 2022).

Tests used:
ES2 [1] = test: CellTiter-Glo viability assay, ES2; format: cell-based, human; details: for IC50: Homo sapiens, ES-2, ES2, read-out: IC50 cellular viability (CellTiter-Glo)
Protocol: (§1) CellTiter-Glo (CTG) viability assays were performed per the manufacturer's instructions. Briefly, 5,000-10,000 cells were seeded per well in a 96 well plate then treated with either DMSO or EGLN1 inhibitor in doses indicated. […] Data presented are the average of three technical replicates.

HIF1A = test: Immunoblot of HIF1A levels after inhibitor treatment; format: cell-based, human
ES2 [2] = test: Long term proliferation assay, ES2; format: cell-based, human; details: for proliferation: ES2 control sgRNA cells; for long term proliferation: ES2
Text: (§8) Data presented are the average of three technical replicate wells when available, excluding wells where there were no live cells to passage. Data are representative of two independent experiments.

[3] = test system: tumors formed from ES2 with HIF1A KO; test: Microdevice delivery into ES2 HIF1A KO tumors, immunohistochemistry; format: in vivo, mice; details: local microdevice delivery, 48 hours
Protocol: (§2) Female Athymic^Nu/Nu mice (8-10 weeks old) were used, were obtained from Jackson Laboratories and had access to food and water in appropriate housing conditions. All animal procedures performed at the Broad Institute were approved by the Institutional Animal Care and Use Committee (IACUC) and according to institutional regulations.
(§3) Devices were manufactured as previously described (42). Briefly, microscale devices at diameter […] and length 3 mm were manufactured and pure powder compounds were formulated in 50% PEG. Mice were subcutaneously delivered ovarian cancer cells and tumors were allowed to grow to 1 cm^2. Mice were anesthetized during implantation using 1% isoflurane. A 19-guage spinal biopsy needle (Angiotech) was inserted into the tumor and served as the location for the device to be implanted.
(§4) Immunohistochemistry was performed on 4 μm serial sections from formalin-fixed, paraffin-embedded (FFPE) tumor tissues. The samples were deparaffinized, rehydrated, and pretreated for antigen retrieval by microwave treatment. Immunostaining was done using cell proliferation marker Ki67 and cleaved caspase 3 (CCE) at the Koch Institute Microscopy Core Facility.
(§5) By inserting this microdevice directly into the tumor, the effect of FG-4592, Bay 85-3934 and VH298 in tumors was assessed in vivo. Specifically, ES2 cells were implanted with intact HIF1A (ES2) or HIF1A knockout (ES2 HIF1A KO) in immunodeficient mice and the tumors were allowed to grow to 1 cm^2 before implanting a microdevice containing the EGLN1 inhibitor FG-4592 and VHL inhibitor VH298. Following implantation, the tumors were collected after 48 hours and the tumors were sectioned and stained for proliferation with an antibody against Ki-67, a cellular marker for proliferating cells or Cleaved Caspase-3, a cellular marker for apoptosis.

[4] = test system: not EGLN1-dependent cell lines; test: Colony formation assay, not EGLN1-dependent cell lines; format: cell-based, human
Text: (§9) Media and drug were refreshed every 3-4 days for 10 days. Cells were fixed on the plate with 10% neutral buffered formalin (Thermo Fisher Scientific) and stained with 0.1% crystal violet in 10% ethanol. After plates were washed and dried, dye was extracted using 10% acetic acid. Absorbance of extracted dye samples at 595 nm was quantified using a Molecular Devices SpectraMax M5 Plate Reader. […] Data are representative of three independent experiments.

JHOC5 = test: Long term proliferation assay, JHOC5; format: cell-based, human; details: JHOC5, dose-dependent
Text: (§6) Data are representative of two independent experiments.

TOV112D [5] = test: CFSE proliferation by flow cytometry, TOV112D; format: cell-based, human; details: increasing concentration, 48 hours
Protocol: (§7) Flow cytometry was performed at the Broad Institute Flow Cytometry core using CFSE (5(6)-Carboxyfluorescein N-hydroxysuccinimidyl ester)—Cell Labeling Kit (Abcam ab113853) to label dividing cells with CFSE and analyzed on FL-1 Excitation(max) 492 nm, Emission(max) 517 nm. Apoptosis was detected using PE Annexin V Apoptosis Detection Kit 1 (BD Biosciences 559763). Dual labeling Annexin V with 7-Amino-Actinomycin (7-AAD) allowed quantification of apoptosis. Data are presented as the average of two technical replicates and are representative of three independent experiments. Data were analyzed using FlowJo data analysis.

ES2 [6] = test: Annexin V apoptosis by flow cytometry, ES2; format: cell-based, human; details: ES2, 40 μM, 48 hours
Protocol: as §7, with “Apoptosis was detected using PE Annexin V Apoptosis Detection Kit 1 (BD Biosciences 559763).” left out

OVISE [7] = test: Long term proliferation assay, OVISE; format: cell-based, human; details: for long term proliferation: OVISE, dose-dependent
Text: as §8

TOV112D [8] = test: Colony formation assay in hypoxia, TOV112D; format: cell-based, human; details: 5% oxygen
Text: Data are representative of three independent experiments.

HIF1A activity = test: Hypoxia Response Element (HRE) luciferase reporter; format: cell-based, human; details: 48 hours post-treatment, increasing dose
Protocol: The Hypoxia Response Element (HRE) was designed based on previous publications (18, 19) and was cloned with a luciferase reporter. The construct was then stably transfected to EGLN1 dependent and independent cell lines. Following transfection cells were treated with EGLN1 inhibitor for up to 6 days and luciferase activity was measured as a readout of HIF1A activity.

EGLN1-dependent cells = test: CellTiter-Glo viability assay over 5 days; format: cell-based, human; details: treated over 5 days
Protocol: CellTiter-Glo (CTG) viability assays were performed per the manufacturer's instructions. Briefly, 5,000-10,000 cells were seeded per well in a 96 well plate then treated with either DMSO or EGLN1 inhibitor in doses indicated. Following 3-6 days treatment (retreated at day 4) CTG compound was added and viability was measured. Data presented are the average of three technical replicates.

OVCAR4 = test: Annexin V apoptosis by flow cytometry, OVCAR4; format: cell-based, human; details: OVCAR4, 40 μM, 48 hours
Protocol: as §7, with “Apoptosis was detected using PE Annexin V Apoptosis Detection Kit 1 (BD Biosciences 559763).” left out

OVISE [9] = test: Annexin V apoptosis by flow cytometry, OVISE; format: cell-based, human; details: 40 μM, 48 hours
Protocol: as §7, with “Apoptosis was detected using PE Annexin V Apoptosis Detection Kit 1 (BD Biosciences 559763).” left out

ES2 HIF1A knockout = test: Proliferation assay, ES2 HIF1A knockout cells; format: cell-based, human
Text: as §8

TOV21G = test: Long term proliferation assay, TOV21G; format: cell-based, human; details: dose-dependent
Text: as §6

OVISE HIF1A knockout = test: Proliferation assay, OVISE HIF1A knockout cells; format: cell-based, human; details: 10 uM and 20 uM
Text: as §6
However, such depletion of HIF1A rescued EGLN1-sensitivity to FG-4592 in ES2 (FIG. 5C) and OVISE (FIG. 5D) (p<0.05) cell lines.

[10] = test system: EGLN1-dependent cell lines; test: Colony formation assay, EGLN1-dependent cell lines; format: cell-based, human
Text: as §9

[11] = test system: EGLN1-dependent cell lines OVTOKO, OVISE and ES2; details: hypoxia (5% oxygen) and normoxia
Protocol: Cells were plated at a low density (250-1000 cells/well) with varying concentrations of FG-4592 (Selleck) on 24 well plates. Media and drug were refreshed every 3-4 days for 10 days. Cells were fixed on the plate with 10% neutral buffered formalin (Thermo Fisher Scientific) and stained with 0.1% crystal violet in 10% ethanol. After plates were washed and dried, dye was extracted using 10% acetic acid. Absorbance of extracted dye samples at 595 nm was quantified using a Molecular Devices SpectraMax M5 Plate Reader. […] Data are representative of three independent experiments.
To test this hypothesis, colony-forming formation assays were performed in the context of normal culture conditions (normoxia) or in a hypoxic incubator at 5% oxygen (hypoxia).

tumors formed from ES2 = test: Microdevice delivery into ES2 tumors, immunohistochemistry; format: in vivo, mice; details: ES2 (HIF1A WT) tumors, local microdevice delivery, 48 hours
Protocol: as §2, §3, §4, §5

TOV112D [12] = test: Annexin V apoptosis by flow cytometry, TOV112D; format: cell-based, human; details: 40 μM, 48 hours
Protocol: as §7, with “Apoptosis was detected using PE Annexin V Apoptosis Detection Kit 1 (BD Biosciences 559763).” left out

TOV112D [13] = test: CellTiter-Glo viability assay, TOV112D; format: cell-based, human; details: 48 hours, increasing dose
Protocol: as §1, with “replicates. Data are representative of three independent experiments.” for “replicates.”

[14] = test system: sensitive cell lines (EGLN1-dependent); details: up to 30 days, p<0.01
Protocol: Non-Cas9 expressing cells were plated on a 12 well or 6 well plate in triplicate with varying concentrations of FG-4592. Every 3-4 days cells were trypsinized, counted using Nexcelom Cellometer, and reseeded at equal densities with the same concentrations of FG-4592, IOX2, BAY85-3934 or VH298. Data presented are the average of three technical replicate wells when available, excluding wells where there were no live cells to passage.

ES2 [15] = test: CFSE proliferation by flow cytometry, ES2; format: cell-based, human; details: ES2, increasing concentration, 48 hours
Protocol: as §7

OVTOKO = test: Long term proliferation assay, OVTOKO; format: cell-based, human; details: dose-dependent
Text: as §6

TOV112D [16] = test: Long term proliferation assay, TOV112D; format: cell-based, human
Text: as §6

SMILES | HIF1A levels (immunoblot) (HIF1A; ES2 cells) | HIF1A levels (immunoblot) (HIF1A; TOV112D cells) | tumor cell apoptosis (Cleaved Caspase-3 immunostaining) [3] | tumor cell proliferation (Ki-67 immunostaining) [3] | colony formation [4] | IC50 (ES2 [1]) | viability (CTG) (EGLN1-dependent cells) | colony formation [10] | tumor cell apoptosis (Cleaved Caspase-3 immunostaining) (tumors formed from ES2) | tumor cell proliferation (Ki-67 immunostaining) (tumors formed from ES2) | long term proliferation (OVTOKO) | long term proliferation (ES2 [2]) | long term proliferation (OVISE [7]) | also measured
O=C(O)CNC(=O)c1nc(Cl)c2ccccc2c1O [FG-2216] | – | – | – | – | – | – | – | – | – | – | – | – | – | sensitivity of ES2 to EGLN1 inhibitors (viability) (ES2 [1]; ES2, FIG. 11D): showed sensitivity
Cc1nc(C(=O)NCC(=O)O)c(O)c2ccc(Oc3ccccc3)cc12 [FG-4592] | increased HIF1A levels in a dose-dependent manner | increased HIF1A levels in a dose-dependent manner | no change | no change | no effect | 40 to 50 µM | reduced viability in a dose-dependent manner | reduced colony formation | increased apoptosis | dramatic reduction in proliferating cells | – | – | – | proliferation (ES2 [2]; 10 uM and 20 uM): reduced proliferation of control cells; long term proliferation (JHOC5): reduced long term proliferation; cell proliferation (CFSE stain, flow cytometry) (TOV112D [5]): did not reduce cell proliferation; apoptosis (Annexin V stain) (ES2 [6]): increased apoptosis; proliferation (OVISE [7]; OVISE control sgRNA cells, 10 uM and 20 uM): reduced proliferation of control cells; colony formation, sensitivity to inhibitor (TOV112D [8]): Increased sensitivity to EGLN1 inhibition was not observed; HIF1A activity (HRE luciferase reporter) (HIF1A activity): increased in both EGLN1-dependent cell lines and cell lines not dependent on EGLN1; cell viability (CellTiter-Glo) (ES2 [1]; ES2, 48 hours, increasing dose): reduced viability; apoptosis (Annexin V stain) (OVCAR4): not increasing apoptosis; apoptosis (Annexin V stain) (OVISE [9]): increased apoptosis; proliferation (ES2 HIF1A knockout; 10 uM and 20 uM): resistant to EGLN1 inhibition; long term proliferation (TOV21G): reduced the long term proliferation; proliferation (OVISE HIF1A knockout): resistant to EGLN1 inhibition; colony formation, sensitivity to inhibitor [11]: sensitive; apoptosis (Annexin V stain) (TOV112D [12]): not increasing apoptosis; cell viability (CellTiter-Glo) (TOV112D [13]): no effect; long term proliferation [14]: significantly reduced long term proliferation; cell proliferation (CFSE stain, flow cytometry) (ES2 [15]): reduced cell proliferation
O=C(O)CNC(=O)c1c(O)c2ccccc2n(Cc2ccccc2)c1=O [IOX2] | – | – | – | – | no effect | – | reduced viability in a dose-dependent manner | reduced colony formation | – | – | reduced long term proliferation | reduced long term proliferation | reduced long term proliferation | –
O=c1c(-n2ccnn2)c[nH]n1-c1cc(N2CCOCC2)ncn1 [Molidustat] | increased HIF1A levels in a dose-dependent manner | increased HIF1A levels in a dose-dependent manner | – | – | – | 40 to 50 µM | – | – | – | – | – | – | – | –
Cc1ncsc1-c1ccc(CNC(=O)[C@@H]2C[C@@H](O)CN2C(=O)[C@@H](NC(=O)C2(C#N)CC2)C(C)(C)C)cc1 [VH298] | increased HIF1A levels in a dose-dependent manner | – | dependent on intact HIF1A | dependent on intact HIF1A | – | – | – | – | increased apoptosis | reduction of proliferating cells | reduced long term proliferation | substantially decreased cell proliferation | reduced long term proliferation | proliferation (ES2 [2]; 100 uM): significantly reduced proliferation of control cells; proliferation (TOV112D [16]): slightly decreased proliferation; proliferation (ES2 HIF1A knockout; 100 uM): resistant to VHL1 inhibition
COc1cccc2c1C(=O)c1c(O)c3c(c(O)c1C2=O)C[C@@](O)(C(=O)CO)C[C@@H]3O[C@H]1C[C@H](N)[C@H](O)[C@H](C)O1 [doxorubicin] | – | – | increased apoptosis | reduced proliferation | – | – | – | – | increased apoptosis | reduced proliferation | – | – | – | –
